Data published in ChEMBL document CHEMBL4138123, “Design, synthesis and biological evaluation of novel pyrazolochalcones as potential modulators of PI3K/Akt/mTOR pathway and inducers of apoptosis in breast cancer cells” (Eur J Med Chem, 2017).
Calls of active or inactive are those of the source. The rule behind the calls is not given here.

Legend:
LOX IMVI [1] = assay: Cytotoxicity against human LOXIMVI cells assessed as cell growth at 0.01 uM after 48 hrs by sulforhodamine B assay relative to control; format: functional; settings: read-out: Activity
MCF7 [2] = assay: Inhibition of PI3K in human MCF7 cells assessed as downregulation of phosphorylated Akt levels at 2 uM after 24 hrs by Western blot analysis; format: cell-based
MCF7 [3] = assay: Downregulation of PI3K mRNA expression in human MCF7 cells at 2 uM after 48 hrs by qRT-PCR analysis; format: functional, cell-based
CAKI-1 [4] = assay: Cytotoxicity against human Caki1 cells assessed as cell growth at 0.01 uM after 48 hrs by sulforhodamine B assay relative to control; format: functional; settings: CAKI-1, 48 h, read-out: Activity
CAKI-1 [5] = assay: Cytotoxicity against human Caki1 cells assessed as cell growth at 100 uM after 48 hrs by sulforhodamine B assay relative to control; format: functional; settings: CAKI-1, 48 h, read-out: Activity
MCF7 [6] = assay: Cell cycle arrest in human MCF7 cells assessed as accumulation at G2/M phase at 2 uM after 48 hrs by flow cytometric analysis (reference value: 8.1%); format: functional
MCF7 [7] = assay: Inhibition of PI3K in human MCF7 cells assessed as increase in GSK-3beta phosphorylation at Ser9 at 2 uM after 24 hrs by Western blot analysis; format: cell-based
LOX IMVI [8] = assay: Cytotoxicity against human LOXIMVI cells assessed as cell growth at 10 uM after 48 hrs by sulforhodamine B assay relative to control; format: functional; settings: read-out: Activity
SK-MEL-2 [9] = assay: Cytotoxicity against human SK-MEL-2 cells assessed as cell growth at 1 uM after 48 hrs by sulforhodamine B assay relative to control; format: functional; settings: SK-MEL-2, 48 h, read-out: Activity
SK-MEL-2 [10] = assay: Cytotoxicity against human SK-MEL-2 cells assessed as cell growth at 0.1 uM after 48 hrs by sulforhodamine B assay relative to control; format: functional; settings: SK-MEL-2, 48 h, read-out: Activity
MCF7 [11] = assay: Downregulation of PI3K protein expression in human MCF7 cells at 2 uM after 24 hrs by Western blot analysis; format: functional, cell-based
LOX IMVI [12] = assay: Cytotoxicity against human LOXIMVI cells assessed as cell growth at 0.1 uM after 48 hrs by sulforhodamine B assay relative to control; format: functional; settings: read-out: Activity
MCF7 [13] = assay: Induction of intrinsic apoptosis in human MCF7 cells assessed as effect on mitochondrial membrane depolarization at 2 uM after 18 hrs by DiOC6 staining-based FACS analysis (reference value: 2%); format: functional
SK-MEL-2 [14] = assay: Cytotoxicity against human SK-MEL-2 cells assessed as cell growth at 10 uM after 48 hrs by sulforhodamine B assay relative to control; format: functional; settings: SK-MEL-2, 48 h, read-out: Activity
LOX IMVI [15] = assay: Cytotoxicity against human LOXIMVI cells assessed as cell growth at 100 uM after 48 hrs by sulforhodamine B assay relative to control; format: functional; settings: read-out: Activity
SK-MEL-2 [16] = assay: Cytotoxicity against human SK-MEL-2 cells assessed as cell growth at 0.01 uM after 48 hrs by sulforhodamine B assay relative to control; format: functional; settings: SK-MEL-2, 48 h, read-out: Activity
CAKI-1 [17] = assay: Cytotoxicity against human Caki1 cells assessed as growth inhibition after 48 hrs by sulforhodamine B assay; format: functional; settings: CAKI-1, 48 h
MCF7 [18] = assay: Induction of apoptosis in human MCF7 cells assessed as necrotic cells at 2 uM after 24 hrs by Annexin-V FITC/propidium iodide staining-based FACS analysis (reference value: 0.2%); format: functional
CAKI-1 [19] = assay: Cytotoxicity against human Caki1 cells assessed as cell growth at 1 uM after 48 hrs by sulforhodamine B assay relative to control; format: functional; settings: CAKI-1, 48 h, read-out: Activity
LOX IMVI [20] = assay: Cytotoxicity against human LOXIMVI cells assessed as cell growth at 1 uM after 48 hrs by sulforhodamine B assay relative to control; format: functional; settings: read-out: Activity
SK-MEL-2 [21] = assay: Cytotoxicity against human SK-MEL-2 cells assessed as cell growth at 100 uM after 48 hrs by sulforhodamine B assay relative to control; format: functional; settings: SK-MEL-2, 48 h, read-out: Activity
CAKI-1 [22] = assay: Cytotoxicity against human Caki1 cells assessed as cell growth at 10 uM after 48 hrs by sulforhodamine B assay relative to control; format: functional; settings: CAKI-1, 48 h, read-out: Activity
CAKI-1 [23] = assay: Cytotoxicity against human Caki1 cells assessed as cell growth at 0.1 uM after 48 hrs by sulforhodamine B assay relative to control; format: functional; settings: CAKI-1, 48 h, read-out: Activity
MCF7 [24] = assay: Downregulation of Bcl-2 mRNA expression in human MCF7 cells at 2 uM after 48 hrs by qRT-PCR analysis; format: functional, cell-based
MCF7 [25] = assay: Downregulation of Akt1 mRNA expression in human MCF7 cells at 2 uM after 48 hrs by qRT-PCR analysis; format: functional, cell-based
HOP-92 [26] = assay: Cytotoxicity against human HOP92 cells assessed as cell growth at 0.01 uM after 48 hrs by sulforhodamine B assay relative to control; format: functional; settings: HOP-92, 48 h, read-out: Activity
HOP-92 [27] = assay: Cytotoxicity against human HOP92 cells assessed as cell growth at 0.1 uM after 48 hrs by sulforhodamine B assay relative to control; format: functional; settings: HOP-92, 48 h, read-out: Activity
HOP-92 [28] = assay: Cytotoxicity against human HOP92 cells assessed as cell growth at 1 uM after 48 hrs by sulforhodamine B assay relative to control; format: functional; settings: HOP-92, 48 h, read-out: Activity
HOP-92 [29] = assay: Cytotoxicity against human HOP92 cells assessed as growth inhibition after 48 hrs by sulforhodamine B assay; format: functional; settings: HOP-92, 48 h
HOP-92 [30] = assay: Cytotoxicity against human HOP92 cells assessed as cell growth at 10 uM after 48 hrs by sulforhodamine B assay relative to control; format: functional; settings: HOP-92, 48 h, read-out: Activity
HOP-92 [31] = assay: Cytotoxicity against human HOP92 cells assessed as cell growth at 100 uM after 48 hrs by sulforhodamine B assay relative to control; format: functional; settings: HOP-92, 48 h, read-out: Activity
SF-295 [32] = assay: Cytotoxicity against human SF295 cells assessed as growth inhibition after 48 hrs by sulforhodamine B assay; format: functional; settings: SF-295, 48 h
SNB-75 [33] = assay: Cytotoxicity against human SNB75 cells assessed as cell growth at 10 uM after 48 hrs by sulforhodamine B assay relative to control; format: functional; settings: SNB-75, 48 h, read-out: Activity
SF-295 [34] = assay: Cytotoxicity against human SF295 cells assessed as cell growth at 0.01 uM after 48 hrs by sulforhodamine B assay relative to control; format: functional; settings: SF-295, 48 h, read-out: Activity
SNB-75 [35] = assay: Cytotoxicity against human SNB75 cells assessed as cell growth at 100 uM after 48 hrs by sulforhodamine B assay relative to control; format: functional; settings: SNB-75, 48 h, read-out: Activity
SF-295 [36] = assay: Cytotoxicity against human SF295 cells assessed as cell growth at 100 uM after 48 hrs by sulforhodamine B assay relative to control; format: functional; settings: SF-295, 48 h, read-out: Activity
SNB-75 [37] = assay: Cytotoxicity against human SNB75 cells assessed as cell growth at 1 uM after 48 hrs by sulforhodamine B assay relative to control; format: functional; settings: SNB-75, 48 h, read-out: Activity
SNB-75 [38] = assay: Cytotoxicity against human SNB75 cells assessed as cell growth at 0.01 uM after 48 hrs by sulforhodamine B assay relative to control; format: functional; settings: SNB-75, 48 h, read-out: Activity
SNB-75 [39] = assay: Cytotoxicity against human SNB75 cells assessed as cell growth at 0.1 uM after 48 hrs by sulforhodamine B assay relative to control; format: functional; settings: SNB-75, 48 h, read-out: Activity
SF-295 [40] = assay: Cytotoxicity against human SF295 cells assessed as cell growth at 0.1 uM after 48 hrs by sulforhodamine B assay relative to control; format: functional; settings: SF-295, 48 h, read-out: Activity
SF-295 [41] = assay: Cytotoxicity against human SF295 cells assessed as cell growth at 1 uM after 48 hrs by sulforhodamine B assay relative to control; format: functional; settings: SF-295, 48 h, read-out: Activity

COc1ccc(C(=O)/C=C/c2cc(-c3cc(OC)c(OC)c(OC)c3)n[nH]2)cc1OC
growth at 0.01 µM (LOX IMVI [1]): 92%
phospho-Akt downregulation (active/inactive) (MCF7 [2]): Active
Activity (MCF7 [3]): Active
growth at 0.01 µM (CAKI-1 [4]): 97%
growth at 100 µM (CAKI-1 [5]): -91%
Activity (MCF7 [6]): 13.1%
Activity call (increase in GSK-3beta Ser9 phosphorylation) (MCF7 [7]): Active
growth at 10 µM (LOX IMVI [8]): -93%
growth at 1 µM (SK-MEL-2 [9]): 98%
growth at 0.1 µM (SK-MEL-2 [10]): 91%
Activity (MCF7 [11]): Active
growth at 0.1 µM (LOX IMVI [12]): 92%
Activity (MCF7 [13]): 42%
growth at 10 µM (SK-MEL-2 [14]): -81%
growth at 100 µM (LOX IMVI [15]): -79%
growth at 0.01 µM (SK-MEL-2 [16]): 86%
LC50 (CAKI-1 [17]): 19.4 µM
TGI (CAKI-1 [17]): 5.46 µM
Activity (MCF7 [18]): 0.1%
growth at 1 µM (CAKI-1 [19]): 94%
growth at 1 µM (LOX IMVI [20]): 73%
growth at 100 µM (SK-MEL-2 [21]): -96%
growth at 10 µM (CAKI-1 [22]): -33%
growth at 0.1 µM (CAKI-1 [23]): 99%
Activity (MCF7 [24]): Active
Activity (MCF7 [25]): Active

COc1ccc(C(=O)/C=C/c2cc(-c3cc(OC)c(OC)c(OC)c3)n[nH]2)cc1
growth at 0.01 µM (LOX IMVI [1]): 95%
phospho-Akt downregulation (active/inactive) (MCF7 [2]): Active
Activity (MCF7 [3]): Active
growth at 0.01 µM (CAKI-1 [4]): 95%
growth at 0.01 µM (HOP-92 [26]): 87%
growth at 100 µM (CAKI-1 [5]): 1%
growth at 0.1 µM (HOP-92 [27]): 83%
Activity call (increase in GSK-3beta Ser9 phosphorylation) (MCF7 [7]): Active
growth at 10 µM (LOX IMVI [8]): -92%
growth at 1 µM (HOP-92 [28]): 53%
TGI (HOP-92 [29]): 3.04 µM
growth at 1 µM (SK-MEL-2 [9]): 97%
growth at 0.1 µM (SK-MEL-2 [10]): 90%
Activity (MCF7 [11]): Active
growth at 0.1 µM (LOX IMVI [12]): 93%
growth at 10 µM (SK-MEL-2 [14]): 21%
growth at 10 µM (HOP-92 [30]): -56%
growth at 100 µM (LOX IMVI [15]): -32%
growth at 0.01 µM (SK-MEL-2 [16]): 92%
LC50 (CAKI-1 [17]): > 100 µM
growth at 1 µM (CAKI-1 [19]): 89%
growth at 1 µM (LOX IMVI [20]): 85%
growth at 100 µM (SK-MEL-2 [21]): -50%
growth at 10 µM (CAKI-1 [22]): -17%
growth at 100 µM (HOP-92 [31]): -36%
growth at 0.1 µM (CAKI-1 [23]): 93%
Activity (MCF7 [24]): Active
Activity (MCF7 [25]): Active

COc1cc(C(=O)/C=C/c2cc(-c3ccc4c(c3)OCO4)n[nH]2)cc(OC)c1OC
GI50 (SF-295 [32]): 2.58 µM
LC50 (SF-295 [32]): 36.4 µM
TGI (SF-295 [32]): 10.1 µM
phospho-Akt downregulation (active/inactive) (MCF7 [2]): Active
growth at 10 µM (SNB-75 [33]): -14%
Activity (MCF7 [3]): Active
growth at 0.01 µM (CAKI-1 [4]): 96%
growth at 0.01 µM (SF-295 [34]): 93%
growth at 100 µM (CAKI-1 [5]): -82%
Activity (MCF7 [6]): 1.98%
Activity call (increase in GSK-3beta Ser9 phosphorylation) (MCF7 [7]): Active
growth at 100 µM (SNB-75 [35]): -100%
growth at 100 µM (SF-295 [36]): -89%
growth at 1 µM (SNB-75 [37]): 90%
Activity (MCF7 [11]): Active
growth at 0.01 µM (SNB-75 [38]): 85%
Activity (MCF7 [13]): 26%
growth at 0.1 µM (SNB-75 [39]): 87%
growth at 0.1 µM (SF-295 [40]): 95%
GI50 (CAKI-1 [17]): 1.99 µM
LC50 (CAKI-1 [17]): 26.1 µM
TGI (CAKI-1 [17]): 5.65 µM
Activity (MCF7 [18]): 0.1%
growth at 1 µM (CAKI-1 [19]): 83%
growth at 10 µM (CAKI-1 [22]): -27%
growth at 0.1 µM (CAKI-1 [23]): 97%
Activity (MCF7 [24]): Active
growth at 1 µM (SF-295 [41]): 85%
Activity (MCF7 [25]): Active
